Like-named read-outs stand apart in the source and are kept apart here.

The subject of one assay is UM-UC-9 engineered cells. Briefly: Cell proliferation / short-term viability assay, CellTiter-Glo 144 h. The format is cell-based, human. As to conditions: read-out: CTGlo 144 h UMUC9.5, G150. An outline of the steps:
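UM-UC-9 engineered assay-ready cells seeded at 500 cells/well in high-glucose DMEM/10% FBS, treated from dose-response plates, grown at 37° C, 5% CO2. CellTiter-Glo 2.0 luminescence read on day 7, with a day-0 pretreatment plate as T0 reference and DMSO wells as negative control.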

The target of a further assay is T1, His6-TEV-PPARγ-(234-505) (Homo sapiens, UniProt P37231).
T1 construct: The His6-TEV-PPARγ-(234-505) protein for assay was expressed and purified; TEV cleavage site (N); made in house
T1 sequence (P37231 234-505): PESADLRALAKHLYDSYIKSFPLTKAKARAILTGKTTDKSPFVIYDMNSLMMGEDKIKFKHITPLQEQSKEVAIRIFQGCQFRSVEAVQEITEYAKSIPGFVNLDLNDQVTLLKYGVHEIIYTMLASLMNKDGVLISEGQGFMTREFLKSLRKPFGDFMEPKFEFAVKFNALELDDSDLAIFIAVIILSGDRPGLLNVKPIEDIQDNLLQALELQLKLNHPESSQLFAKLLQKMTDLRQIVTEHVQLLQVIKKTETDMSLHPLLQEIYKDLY
The assay can be described thus: TR-FRET Assay to Measure Co-R Peptide Recruitment to PPARγ. The class given is biochemical. The conditions noted are these: Co-R peptide (SMRT-ID2) recruitment; top final concentration 20 μM; read-out: TR-FRET i-Ag; AC50. An outline of the steps:
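His-tagged PPARγ (or controls) was preincubated with compound for 20 minutes at room temperature, then 5 nM anti-His terbium antibody and 200 nM FITC-labeled SMRT-ID2 corepressor peptide (final) were added for a further hour. TR-FRET signal was normalized to percent response using 500 nM T0070907 and DMSO controls.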

In the case of `COc1cc(-c2cc(C(=O)N3CCC(C(=O)NC4CCN(CCF)C(C)(C)C4)CC34CC4)n[nH]2)c(F)cn1` (mixture of isomers) [Example 425, (S)-4-(5-(5-fluoro-2-methoxypyridin-4-yl)-1H-pyrazole-3-carbonyl)-N—((S)-1-(2-fluoroethyl)-2,2-dimethylpiperidin-4-yl)-4-azaspiro[2.5]octane-7-carboxamide and (S)-4-(5-(5-fluoro-2-methoxypyridin-4-yl)-1H-pyrazole-3-carbonyl)-N—((R)-1-(2-fluoroethyl)-2,2-dimethylpiperidin-4-yl)-4-azaspiro[2.5]octane-7-carboxamide], in the assay on UM-UC-9 engineered cells, the IC50 was greater than 10000 nM. In addition, the AC50 on His6-TEV-PPARγ-(234-505) is 901 nM.
As for `CCc1cc(-c2cc(C(=O)N3CCC(C(=O)NCc4ncc(F)cc4Cl)CC34CC4)n[nH]2)c(F)cn1` (single isomer, unassigned) [Example 483-B], in the assay with UM-UC-9 engineered cells, the IC50 was determined as 7.2 nM. The AC50 on His6-TEV-PPARγ-(234-505) turned out to be 0.9 nM.
In the case of `CCO[C@]1(C(F)(F)F)CC[C@H](NC(=O)[C@H]2CCN(C(=O)c3cc(-c4cc(C)ncn4)[nH]n3)C3(CC3)C2)CC1` (single isomer, unassigned) [Example 308-D], the IC50 in the assay on UM-UC-9 engineered cells (Homo sapiens, UM-UC-9, 144 h) was 192 nM. In addition, the AC50 at His6-TEV-PPARγ-(234-505) amounted to 25.6 nM.
For `COc1cc(-c2cc(C(=O)N3[C@@H]4CC[C@H]3C[C@H](C(=O)NC3CCC(O)(C(F)(F)C(F)(F)F)CC3)C4)n[nH]2)c(F)cn1` (mixture of isomers) [Example 301, (1R,3s,5S)-8-(5-(5-fluoro-2-methoxypyridin-, 1-yl)-1H-pyrazole-3-carbonyl)-N-(4-hydroxy-4-(perfluoroethyl)cyclohexyl)-8-azabicyclo[3.2.1]octane-3-carboxamide] the same measures were 74.8 nM and 15.9 nM.
On to `COc1cc(-c2cc(C(=O)N3CC[C@H](C(=O)NC4CCC5CCCN5C4)CC34CC4)n[nH]2)c(F)cn1` (single isomer, unassigned) [Example 376-B], for which the IC50 in the assay with UM-UC-9 engineered cells is 3880 nM. Besides, the AC50 at His6-TEV-PPARγ-(234-505) was 1600 nM.
On to `COc1cc(-c2cc(C(=O)N3CCC(C(=O)NCc4cccc(Cl)c4)CC3C)n[nH]2)c(Cl)cn1` (mixture of isomers) [Example 172, 1-(5-(5-chloro-2-methoxypyridin-4-yl)-1H-pyrazole-3-carbonyl)-N-(3-chlorobenzyl)-2-methylpiperidine-4-carboxamide], for which the IC50 with UM-UC-9 engineered cells (Homo sapiens, UM-UC-9, 144 h) was determined as 163 nM. At His6-TEV-PPARγ-(234-505), the AC50 came to 16.5 nM.
For `COc1cc(-c2cc(C(=O)N3CC[C@H](C(=O)NCC45COC(C)(C4)C5)CC34CC4)n[nH]2)c(F)cn1` [Example 343, (S)-4-(5-(5-fluoro-2-methoxypyridin-4-yl)-1H-pyrazole-3-carbonyl)-N-((1-methyl-2-oxabicyclo[2.1.1]hexan-4-yl)methyl)-4-azaspiro[2.5]octane-7-carboxamide] the same measures were 93 nM and 20 nM.
For the compound `COc1cnc(CNC(=O)C2CCN(C(=O)c3cc(-c4cc(C)ncc4F)[nH]n3)C3(CC3)C2)c(Cl)c1` (racemic) [Example 484, (S)—N-((3-chloro-5-methoxypyridin-2-yl)methyl)-4-(5-(5-fluoro-2-methylpyridin-4-yl)-1H-pyrazole-3-carbonyl)-4-azaspiro[2.5]octane-7-carboxamide and (R)—N-((3-chloro-5-methoxypyridin-2-yl)methyl)-4-(5-(5-fluoro-2-methylpyridin-4-yl)-1H-pyrazole-3-carbonyl)-4-azaspiro[2.5]octane-7-carboxamide], the IC50 in the assay with UM-UC-9 engineered cells was 20.5 nM. Moreover, the AC50 at His6-TEV-PPARγ-(234-505) was found to be 3.8 nM.
On to `COc1cc(-c2cc(C(=O)N3CCC(C(=O)NC4CC(C)CC(C)(C)C4)CC3)n[nH]2)c(Cl)cn1` (mixture of isomers) [Example 150, 1-(5-(5-chloro-2-methoxypyridin-4-yl)-1H-pyrazole-3-carbonyl)-N-(3,3,5-trimethylcyclohexyl)piperidine-4-carboxamide], for which, in the assay with UM-UC-9 engineered cells (Homo sapiens, UM-UC-9, 144 h), the IC50 came to 779 nM. Also, at His6-TEV-PPARγ-(234-505), the AC50 worked out at 269 nM.
The corresponding values for `COc1cc(-c2cc(C(=O)N3CCC(C(=O)NCc4nn(C)c5ccccc45)CC3)n[nH]2)c(Cl)cn1` [Example 218, 1-(5-(5-chloro-2-methoxypyridin-4-yl)-1H-pyrazole-3-carbonyl)-N-((1-methyl-1H-indazol-3-yl)methyl)piperidine-4-carboxamide] are 138 nM and 13.8 nM.
For `CCO[C@]1(C(F)(F)F)CC[C@@H](NC(=O)[C@H]2CCN(C(=O)c3cc(-c4cc(OC)ncc4F)[nH]n3)C3(CC3)C2)CC1` (single isomer, unassigned) [Example 312-B] the same measures were 1.8 nM and 2.5 nM.
For the compound `CCO[C@]1(C(F)(F)F)CC[C@@H](NC(=O)[C@@H]2CCN(C(=O)c3cc(-c4cc(C)ncn4)[nH]n3)C3(CC3)C2)CC1` (single isomer, unassigned) [Example 308-E], the IC50 in the assay on UM-UC-9 engineered cells (Homo sapiens, UM-UC-9, 144 h) came out at 2560 nM. For the same compound, on His6-TEV-PPARγ-(234-505), the AC50 was 635 nM.
For `Cc1cc(-c2c[nH]c(C(=O)N3CCC(C(=O)N[C@H]4CC[C@@](O)(C(F)(F)F)CC4)CC34CC4)n2)c(O)cn1` (stereo partly drawn) [Example 310, 4-(4-(5-hydroxy-2-methylpyridin-4-yl)-1H-imidazole-2-carbonyl)-N-((1r,4r)-4-hydroxy-4-(trifluoromethyl)cyclohexyl)-4-azaspiro[2.5]octane-7-carboxamide] the same measures were 99 nM and 14 nM.
For the compound `COc1cc(-c2cc(C(=O)N3C4COCC3CC(C(=O)N[C@H]3CC[C@@](O)(C(F)(F)F)CC3)C4)n[nH]2)c(F)cn1` (stereo partly drawn) [Example 282, 9-(5-(5-fluoro-2-methoxypyridin-4-yl)-1H-pyrazole-3-carbonyl)-N-((1r,4r)-4-hydroxy-4-(trifluoromethyl)cyclohexyl)-3-oxa-9-azabicyclo[3.3.1]nonane-7-carboxamide], in the assay on UM-UC-9 engineered cells (Homo sapiens, UM-UC-9, 144 h), the IC50 came to 293 nM. Besides, the AC50 on His6-TEV-PPARγ-(234-505) was determined as 59 nM.
For `COc1cc(-c2cc(C(=O)N3[C@@H]4CC[C@H]3C[C@H](C(=O)NC3CCC(C(F)(F)F)OC3)C4)n[nH]2)c(F)cn1` (single isomer, unassigned) [Example 280-A] the same measures were 5800 nM and 895 nM.
Consider `COc1cc(-c2cc(C(=O)N3CC[C@@H](C(=O)NCc4cccc(Cl)c4)C[C@H]3C)n[nH]2)c(Cl)cn1` [Example 273, (2R,4R)-1-(5-(5-chloro-2-methoxypyridin-4-yl)-1H-pyrazole-3-carbonyl)-N-(3-chlorobenzyl)-2-methylpiperidine-4-carboxamide], for which the IC50 in the assay with UM-UC-9 engineered cells (Homo sapiens, UM-UC-9, 144 h) came to 213 nM. Further, the AC50 at His6-TEV-PPARγ-(234-505) came out at 26.7 nM.
As for `COc1cc(-c2cc(C(=O)N3CCC(C(=O)NC4CCCn5c(C)nnc54)CC34CC4)n[nH]2)c(F)cn1` (mixture of isomers) [Example 492, (S)-4-(5-(5-fluoro-2-methoxypyridin-4-yl)-1H-pyrazole-3-carbonyl)-N—((S)-3-methyl-5,6,7,8-tetrahydro-[1,2,4]triazolo[4,3-a]pyridin-8-yl)-4-azaspiro[2.5]octane-7-carboxamide and (S)-4-(5-(5-fluoro-2-methoxypyridin-4-yl)-1H-pyrazole-3-carbonyl)-N—((R)-3-methyl-5,6,7,8-tetrahydro-[1,2,4]triazolo[4,3-a]pyridin-8-yl)-4-azaspiro[2.5]octane-7-carboxamide], in the assay with UM-UC-9 engineered cells, the IC50 was greater than 10000 nM. The AC50 on His6-TEV-PPARγ-(234-505) came to 454 nM.
The corresponding values for `COc1cc(-c2cc(C(=O)N3CC[C@H](C(=O)NC4CCC(O)(C(F)(F)F)C(O)C4)CC34CC4)n[nH]2)c(F)cn1` (single isomer, unassigned) [Example 474-F] are 2540 nM and 71.6 nM.

Source of the values: patent US12606541B2, “PPARg modulators and methods of use” (Eisai R&D Management Co., Ltd., priority 2020, dated 2026).
